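Cultured in 96-well plates, cells were exposed to test compound for 48 hours across five concentrations. TGI denotes the concentration required for complete inhibition of growth.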
Columns and labels:
Assay in all cases: NCI anticancer screen, dose series, 48 h
[1] = test system: SW-620 colon
[2] = test system: HL-60(TB) leukemia
[3] = test system: SNB-19 CNS
[4] = test system: SN12C renal
[5] = test system: RPMI-8226 leukemia
[6] = test system: HS 578T breast
[7] = test system: HT29 colon
[8] = test system: ACHN renal
[9] = test system: RXF 393 renal
[10] = test system: SNB-75 CNS

| Compound | TGI [1] | TGI [2] | TGI [3] | TGI [4] | TGI [5] | TGI [6] | TGI [7] | TGI [8] | TGI [9] | TGI [10] |
| --- | --- | --- | --- | --- | --- | --- | --- | --- | --- | --- |
| C[C@H](CCC1=NCCN1)[C@H]1CC[C@H]2[C@@H]3CC[C@@H]4C[C@H](O)CC[C@]4(C)[C@H]3C[C@H](O)[C@]12C | 44.6 µM | 36 µM | 21 µM | 34 µM | 30 µM | 27.8 µM | 22.3 µM | 30.5 µM | 35.9 µM | 13.5 µM |
| CS(=O)(=O)O.[Ag] | 19.5 µM | 11.4 µM | 78.7 µM | 38.7 µM | 6.29 µM | > 100 µM | 39.3 µM | 16.8 µM | 42 µM | 35.6 µM |
| Cc1cc(N=C2C=C(Nc3cc(C)on3)C(=O)c3ccccc32)no1 | > 100 µM | > 100 µM | > 100 µM | > 100 µM | > 100 µM | > 100 µM | > 100 µM | > 100 µM | > 65.9 µM | > 87.8 µM |
| CCOc1cc(C2SCC(=O)N2c2nc3cc4sc(N5C(=O)CSC5c5ccc(O)c(OCC)c5)nc4cc3s2)ccc1O (stereo not given) | > 100 µM | > 100 µM | > 100 µM | > 100 µM | > 100 µM | > 100 µM | > 100 µM | > 100 µM | > 100 µM | > 100 µM |
| CN(C)CCn1c(=O)c2ccc3c4c(nn3CCN(C)C)c3ccccc3n(c1=O)c24 | 32 µM | 2.75 µM | 3.75 µM | 1.59 µM | 4.07 µM | 12.5 µM | 2.23 µM | 0.765 µM | 1.26 µM | 0.145 µM |
| NCCCCNC1(c2cc3ccccc3s2)CCCCC1 | 14.6 µM | 12.6 µM | 21.1 µM | 25.1 µM | 6.1 µM | 20.4 µM | 9.7 µM | 23.2 µM | 14.9 µM | 9.9 µM |
| C#CCOC(=O)C(N)CCCN=C(N)N (stereo not given) | > 100 µM | > 100 µM | > 100 µM | > 100 µM | > 100 µM | > 100 µM | > 100 µM | > 100 µM | > 100 µM | > 100 µM |
| O=C1C(N=Nc2ccc(-c3nc4ccccc4[nH]3)cc2)NC(=S)N1c1ccccc1 (stereo not given) | 80.1 µM | > 100 µM | > 100 µM | > 100 µM | 60.2 µM | > 100 µM | > 100 µM | > 100 µM | 47.3 µM | > 100 µM |
| COc1cc(C(SCc2ccccc2)SCc2ccccc2)ccc1O | > 10 µM | > 10 µM | > 10 µM | > 10 µM | > 10 µM | > 10 µM | > 10 µM | > 10 µM | > 10 µM | > 10 µM |
| OCCO[P+]1(OCCO)n2c3ccc2C(c2ccccc2)=C2C=CC(=N2)C(c2ccccc2)=c2ccc(n21)=C(c1ccccc1)C1=NC(=C3c2ccccc2)C=C1 | 1.09 µM | 0.222 µM | 1.96 µM | 0.125 µM | 0.0657 µM | 0.206 µM | 3.36 µM | 1.1 µM | 0.563 µM | 0.273 µM |
| CC(C)(C)OC(=O)NCC(=O)N1CCCN(C(=O)CNC(=O)OC(C)(C)C)CC1 | > 100 µM | > 100 µM | > 100 µM | > 100 µM | > 100 µM | > 100 µM | > 100 µM | > 100 µM | > 100 µM | > 100 µM |
| O=C(OCc1ccccc1)N1c2cc([N+](=O)[O-])ccc2C(=O)N2CCC[C@H]2C1O (stereo not given in full) | > 100 µM | > 100 µM | > 100 µM | > 100 µM | > 100 µM | > 100 µM | > 100 µM | > 100 µM | > 100 µM | > 100 µM |
| COc1cc2c(cc1Cl)n([O-])c(C#N)c(N1CCN(c3ccc([N+](=O)[O-])cc3)CC1)[n+]2=O | > 100 µM | > 100 µM | > 100 µM | > 100 µM | > 100 µM | > 57.5 µM | > 100 µM | > 77.2 µM | > 100 µM | > 70.6 µM |
